The test system of test [1] is S. aureus Cowan. The test is described as follows: S. aureus Cowan-infected A549 cells treated with flucloxacillin and lysosomotropic alkalinizing agents (intracellular persisters, SCVs). To be noted: for effect on phagolysosomal pH: infected host cells. The format is cell-based, Staphylococcus aureus. On the procedure: Reduction of S. aureus persisters through phagolysosome alkalinization. S. aureus Cowan-infected A549 cells were treated with flucloxacillin alone (control) or supplemented with lysosomotropic alkalinizing agents (chloroquine (a), bafilomycin A1 (b) and ammonium chloride (c)). Colony phenotypes of viable intracellular persisting bacteria were determined and enumerated at indicated time points. Data were pooled from three independent experiments done in triplicates, mean±SEM. Two-way ANOVA found the factors time and treatment to be significant (p-value<0.01).
MSSA strain Cowan is highly invasive, but not cytotoxic which allowed maintaining this strain intracellularly over several days in the lung epithelial cell line A549. Extracellular bacteria were killed by adding a high dose of flucloxacillin to the infected host cells. Flucloxacillin is typically used to treat S. aureus endocarditis in patients. Absence of extracellular bacteria was confirmed by sterility of culture supernatants. Host cells were lysed to release intracellular bacteria and colony counts, as well as colony phenotypes, were determined at various time points. […] The number of viable intracellular persisting bacteria decreased during the course of infection while the frequency of SCVs increased and reached 5.6% after seven days.
No differences in total colony counts between control and treated cells were observed. […] No significant differences in host cell viability were observed after treatment with the alkalinizing agents.
Growth resumption of S. aureus persisters through treatment of host cells with chloroquine was assessed. […] We observed no dividing bacteria in infected host cells without chloroquine treatment.

For test [2], the system named is S. aureus Cowan. The test is described as follows: In vivo infection model: mice infected intraperitoneally with S. aureus Cowan. More on the design: species or system Staphylococcus aureus. On the procedure:
Mice were infected with S. aureus Cowan intraperitoneally. Six hours and two days post-infection mice were treated with 1 mg flucloxacillin and 0.2 mg chloroquine (+CQ). Mice treated with flucloxacillin only served as control (−CQ). †, sacrifice (a). Colony phenotypes of bacteria recovered from target tissues (b), peripheral blood and peritoneal lavage (c) were determined and enumerated. Each point represents one mouse. Horizontal bars indicate mean±SEM, n=11 mice per group. PL, peritoneal lavage. Two-way ANOVA found the factor treatment to be significant (p-value<0.01).
Mice infected with S. aureus Cowan were treated with flucloxacillin alone (control), or in combination with chloroquine (FIG. 5a).

In the case of `CCN(CC)CCCC(C)Nc1ccnc2cc(Cl)ccc12` (stereo not drawn) [Chloroquine, chloroquine], in the test on S. aureus Cowan [1], the “effect on phagolysosomal pH” value was “neutralized the phagolysosomal pH”. In addition, in the test on S. aureus Cowan [1] (three days post-infection, vs host cells without chloroquine), the “bacterial cell division (transmission electron microscopy)” value was “facilitated bacterial cell division”. For the same compound, the “frequency of SCVs in various organs and compartments” value in the test with S. aureus Cowan [2] (1 mg flucloxacillin and 0.2 mg chloroquine at six hours and two days post-infection vs flucloxacillin only) is “significantly reduced”. In addition, in the test with S. aureus Cowan [2] (flucloxacillin with vs without chloroquine), the absolute bacterial numbers result is on record as “comparable”.
For `Cl.N` [ammonium chloride], in the test on S. aureus Cowan [1], the “effect on phagolysosomal pH” value is reported as “neutralized the phagolysosomal pH”.
As to `CO/C1=C\C(C)=C\[C@@H](C)[C@@H](O)[C@@H](C)C/C(C)=C/C=C/[C@H](OC)[C@@H]([C@@H](C)[C@@H](O)[C@H](C)[C@@]2(O)C[C@@H](O)[C@H](C)[C@@H](C(C)C)O2)OC1=O` [bafilomycin A1], the “effect on phagolysosomal pH” value with S. aureus Cowan [1] was “neutralized the phagolysosomal pH”.

For the origin of these results see patent US11690899B2, “Combination of bactericidal agent with a lysosomotropic alkalinising agent for the treatment of a bacterial infection” (priority 2015, dated 2023).
